Source: US9579385B2, “Ophthalmic compositions comprising polyvinyl caprolactam-polyvinyl acetate-polyethylene glycol graft copolymers” (Allergan, Inc., priority 2011, dated 2017)
≈ marks a conversion by molar mass, not a printed value.

Experiment: Bimatoprost solubility in formulation vehicles with different solubilizers
Type: physicochemical
Conditions: for solubility at 8 weeks: measured at 8 weeks; for solubility at 1 week: formulation vehicle with 1% SOLUPLUS (PCA-PVA-PEG), vehicle with 1% SOLUPLUS (PCA-PVA-PEG), measured at 1 week only
Description: Table 1 summarizes solubility of bimatoprost in vehicles with 5 different solubilizers over a range of temperatures.

With CCNC(=O)CCC/C=C\C[C@@H]1[C@@H](/C=C/[C@@H](O)CCc2ccccc2)[C@H](O)C[C@@H]1O [Bimatoprost] the solubility at 8 weeks (formulation vehicle with 1% POE 40 Stearate, aqueous with cosolvent or surfactant or cyclodextrin, vehicle with 1% POE 40 Stearate, 5 °C) was 1270 µg/mL (≈ 3.05 mM), the solubility at 8 weeks (formulation vehicle with 1% POE 40 Stearate, aqueous with cosolvent or surfactant or cyclodextrin, vehicle with 1% POE 40 Stearate, 25 °C) was 1210 µg/mL (≈ 2.92 mM) and the solubility at 8 weeks (formulation vehicle with 1% POE 40 Stearate, aqueous with cosolvent or surfactant or cyclodextrin, vehicle with 1% POE 40 Stearate, 40 °C) was 1150 µg/mL (≈ 2.76 mM). The solubility at 8 weeks (formulation vehicle with 1% Polysorbate 20, aqueous with cosolvent or surfactant or cyclodextrin, vehicle with 1% Polysorbate 20, 5 °C) was 1240 µg/mL (≈ 2.99 mM), the solubility at 8 weeks (formulation vehicle with 1% Polysorbate 20, aqueous with cosolvent or surfactant or cyclodextrin, vehicle with 1% Polysorbate 20, 25 °C) was 1180 µg/mL (≈ 2.83 mM) and the solubility at 8 weeks (formulation vehicle with 1% Polysorbate 20, aqueous with cosolvent or surfactant or cyclodextrin, vehicle with 1% Polysorbate 20, 40 °C) was 1050 µg/mL (≈ 2.53 mM). The solubility at 8 weeks (formulation vehicle with 1% Polysorbate 80, aqueous with cosolvent or surfactant or cyclodextrin, vehicle with 1% Polysorbate 80, 5 °C) was 1680 µg/mL (≈ 4.04 mM), the solubility at 8 weeks (formulation vehicle with 1% Polysorbate 80, aqueous with cosolvent or surfactant or cyclodextrin, vehicle with 1% Polysorbate 80, 25 °C) was 1520 µg/mL (≈ 3.67 mM) and the solubility at 8 weeks (formulation vehicle with 1% Polysorbate 80, aqueous with cosolvent or surfactant or cyclodextrin, vehicle with 1% Polysorbate 80, 40 °C) was 1460 µg/mL (≈ 3.51 mM). It also gave a solubility at 1 week (aqueous with cosolvent or surfactant or cyclodextrin, 5 °C) of 427 µg/mL (≈ 1.03 mM), a solubility at 1 week (aqueous with cosolvent or surfactant or cyclodextrin, 25 °C) of 3510 µg/mL (≈ 8.45 mM) and a solubility at 1 week (aqueous with cosolvent or surfactant or cyclodextrin, 40 °C) of 4750 µg/mL (≈ 11.4 mM). The solubility at 8 weeks (formulation vehicle with 1% SOLUTOL HS 15, aqueous with cosolvent or surfactant or cyclodextrin, vehicle with 1% SOLUTOL HS 15, 5 °C) was 1500 µg/mL (≈ 3.61 mM), the solubility at 8 weeks (formulation vehicle with 1% SOLUTOL HS 15, aqueous with cosolvent or surfactant or cyclodextrin, vehicle with 1% SOLUTOL HS 15, 25 °C) was 1320 µg/mL (≈ 3.18 mM) and the solubility at 8 weeks (formulation vehicle with 1% SOLUTOL HS 15, aqueous with cosolvent or surfactant or cyclodextrin, vehicle with 1% SOLUTOL HS 15, 40 °C) was 1240 µg/mL (≈ 2.98 mM).
